Results as given in PMC11737796 (PLOS ONE, 2025).
Several values for one entry are separate records, joined by “and”; a condition that tells them apart may be missing. Equal entries are not always repeated. Where two headings read alike, the source gives them in different places. Values belong to the compound of their own block, whether it stands above or below them.

Experiments:
[1] = target: T1, recombinant human RORγt LBD (Homo sapiens, UniProt P51449); experiment: Human RORγt radioligand competition binding assay
T1 sequence (P51449 258-518): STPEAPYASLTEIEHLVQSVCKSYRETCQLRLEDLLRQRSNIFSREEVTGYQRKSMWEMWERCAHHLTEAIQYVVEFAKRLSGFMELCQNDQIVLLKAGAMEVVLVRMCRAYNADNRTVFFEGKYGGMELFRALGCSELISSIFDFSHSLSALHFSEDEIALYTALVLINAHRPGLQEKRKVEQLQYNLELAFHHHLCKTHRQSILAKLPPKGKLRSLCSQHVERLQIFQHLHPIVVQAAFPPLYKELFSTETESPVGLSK
Experimental: The assay was run in white polystyrene flat-bottom 384-well plates (Greiner, cat. No. 781075). Assays were carried out in 40 μl reaction volumes. A concentration range of test ligands in 0.4 μl of DMSO were added to assay plates using an acoustic liquid dispenser. […] Test plates were incubated for 16 hours and read using a LEADseeker (GE Healthcare, USA) Multimodality imaging instrument.
(§1) The raw data from the radio-ligand and co-factor recruitment assays were transformed to % effect using the equation:
(§2) Compound % effect = 100*[(X-min)/(max-min)]
(§3) where X represents the effect in the presence of test compound and max and min are the effects in presence of the maximum and minimum controls respectively.
(§4) The data was plotted to generate concentration response profiles and the concentration-response curves were fitted to the data using the non-linear regression analysis; 4 parameter logistic smart fit method in the Analyser application of the Genedata® Screener software (Genedata, Inc., Basel, Switzerland). […] Ki was calculated from the IC50 value using the equation Ki = IC50/1+[L]/Kd)

[2] = target: T2, recombinant murine RORγt LBD (Mus musculus, UniProt P51450); experiment: Murine RORγt radioligand competition binding assay; settings: for Mouse ligand binding Response (%): raw points of replicate experiments
T2 construct: 10nM purified HN-AVI-GST-TCS-mRORγ(aa256-516) was mixed with
T2 sequence (P51450 256-516): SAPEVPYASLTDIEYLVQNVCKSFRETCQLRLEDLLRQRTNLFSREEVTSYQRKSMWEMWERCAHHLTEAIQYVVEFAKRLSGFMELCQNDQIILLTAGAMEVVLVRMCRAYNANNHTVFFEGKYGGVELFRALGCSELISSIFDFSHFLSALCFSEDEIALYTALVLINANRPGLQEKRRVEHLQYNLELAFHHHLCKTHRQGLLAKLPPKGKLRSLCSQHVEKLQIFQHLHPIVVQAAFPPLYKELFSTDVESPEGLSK
Experimental: The assay was run in white/clear polystyrene flat-bottom 384-well plates (Greiner, cat. No. 781095). Assays were carried out in 40 μl reaction volumes. 0.125 μl of a fixed concentration range of test ligands dissolved in DMSO were added to assay plates using an acoustic liquid dispenser.
as §1, §2, §3, §4

thymic lymphomas [3] = settings: rats; cited from earlier work
thymic lymphomas [4] = settings: mice; cited from earlier work
human RORα LBD = target: T3, human RORα LBD (Homo sapiens, UniProt P35398); experiment: RORα co-factor recruitment assay; format: biochemical; settings: raw points; for RORa agonism Response (%): agonism mode; for RORa inverse agonism Response (%): inverse agonism mode
T3 construct: 180 nM Protein (His6-tcs-hRORαLBD)
T3 sequence (P35398 272-510 limits assumed): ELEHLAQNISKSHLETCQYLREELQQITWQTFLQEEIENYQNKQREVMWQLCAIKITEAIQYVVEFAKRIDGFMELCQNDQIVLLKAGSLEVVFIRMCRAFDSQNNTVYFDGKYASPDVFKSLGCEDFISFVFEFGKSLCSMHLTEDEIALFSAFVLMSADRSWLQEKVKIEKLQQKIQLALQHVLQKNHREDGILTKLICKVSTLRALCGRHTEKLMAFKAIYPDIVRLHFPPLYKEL
Experimental: The assay was run in black 384 well plates (Greiner: 784900). A 0.2 μl volume of a fixed concentration range of test ligands dissolved in DMSO were added to assay plates using an acoustic liquid dispenser. Two pre-mixes were prepared in falcon tubes. Pre-mix 1 comprised 180 nM Protein (His6-tcs-hRORαLBD) and 8 nM Lance Eu-W1024-anti 6xHis in assay buffer, 50 mM Hepes pH7.4, 100 mM NaCl, 0.1% (w/v) BSA, 1 mM TCEP which was incubated for 30 minutes at room temperature before dispensing 10 μl to assay plates. Then, pre-mix 2 comprising 200 nM biotinylated PGC1alpha peptide and 50 nM streptavidin APC in assay buffer, was prepared and incubated for 30 minutes at room temperature before adding 10 μl to assay plates containing test compound and premix 1. Plates were incubated at room temperature for 1 hour in the dark, prior to reading in a Pherastar multi-mode plate reader (BMG LABTECH) using HTRF filter set (ex 320 nm, em 612 and 665 nm). The FRET signal at 665 nm was divided by the signal at 612 nm and multiplied by 10,000 to generate a signal ratio value for each well.
as §1, §2, §3, §4

[5] = tested on: IL-17A production in primary human Th17 cells; experiment: Primary human Th17 cell assay (IL-17A release); format: cell-based
Experimental: Peripheral blood mononuclear cells were isolated from heparin treated human whole blood from healthy donors by density gradient centrifugation. […] On day 4, supernatants were collected and IL-17A was measured using a Human IL-17A HTRF Assay kit (Cisbio/PerkinElmer, MA, USA) according to the manufacturer’s protocol.
Genedata Screener® software (Genedata, Inc., Basel, Switzerland) was used for data normalization, curve fitting and calculation of IC50 for IL-17A inhibition as well as for cell viability. Raw data from the Human IL-17A HTRF Assay and CellTiter-Glo® Luminescent Cell Viability assay was transformed to % effect according to the formula:
Compound % effect = 100*[(X-min)/(max-min)],
where X represents the effect in the presence of test compound. […] For the cell viability calculations, 2-(2,2-dicyclohexylethyl)piperidine at 10 μM was used as maximal toxicity control while DMSO was used as minimal toxicity control. A four-parameter logistic smart fit method in the Analyser application of the Genedata® Screener software was used for curve fitting of the % effect data and IC50 calculation.

mouse thymocytes = experiment: Mouse thymocyte apoptosis assay ex vivo; format: cell-based; settings: 26 hours, AnnexinV and 7AAD staining
Experimental: The thymus from a female C57BL/6NCrl (Charles River) mouse aged around 7 weeks was dissected out after giving the mouse a lethal i.p. injection of penthobarbital. Single cell suspension of thymocytes was prepared by disrupting the thymus through a 70 μm cell strainer with the top of a sterile 5 ml syringe plunger in DPBS (without Ca/Mg). Cells were filtered through a 40 μm cell strainer and washed in serum-free media before being resuspended in complete media (RPMI1640 with L-glutamine supplemented with 10% heat inactivated foetal bovine serum (FBS) (Gibco/Invitrogen) and 50 μM 2-mercaptoethanol (Gibco/Invitrogen).
Cells were seeded at 500 000 cells/well in 96-well plates (U-bottom, cat #3799, Corning, MA, USA) in the presence of compounds or DMSO and cultured for 26 hours (37°C, 5% CO2). The thymocytes were then washed twice in cold DPBS (without Ca/Mg) and stained with APC AnnexinV (#550475, BD Pharmingen, BD Biosciences, CA, USA) and 7AAD (#559925, BD Pharmingen) in AnnexinV Binding buffer (#556454, BD Pharmingen) for 15 minutes at RT (dark) in order to separate live cells from dead, early apoptotic and late apoptotic cells when analysed on the BD Accuri C6 (BD Biosciences, CA, USA).
The compound effect on the percentage of surviving cells relative to the DMSO control were calculated using the following formula; […]

[6] = Mouse plasma protein binding; format: in vitro ADME
Source text: Table 1 Overview of compound potencies in multiple assays. | column: 1; 2; 3; 4; 5; 6

IMQ model = settings: cited from earlier work
thymocyte numbers = settings: bi-daily administration of 10 mg/kg, after two days; cited from earlier work
[7] = tritiated ligand, used for Ki calculation

IC50 ([1]; the ligand that is used tritiated as radioligand, n = 6): 47.9 nM
Kd [1, 7]: 17 nM
IC50 ([2]; the ligand that is used tritiated as radioligand, n = 3): 123 nM
Kd [2, 7]: 45 nM
SMILES: CCS(=O)(=O)c1ccc(CC(=O)Nc2cc(-c3ccccc3COC)cs2)cc1 [2-(4-(ethylsulfonyl)phenyl)-N-(4-(2-(methoxymethyl)phenyl)thiophen-2-yl)acetamide, reference compound]

SMILES: C[C@H]1C[C@H](C(=O)O)CC[C@H]1C(=O)N1CC[C@@]2(S(=O)(=O)c3ccc(F)cc3)c3ccc(C(F)(C(F)(F)F)C(F)(F)F)cc3CC[C@@H]12 [BMS-986251]
thymic lymphomas (thymic lymphomas [3]): thymic lymphomas
thymic lymphomas (thymic lymphomas [4]): thymic lymphomas

Mouse ligand binding Response (%) ([2]; -LOG10(Concentration) 5): -100.443% and -98.9%
Mouse ligand binding Response (%) ([2]; -LOG10(Concentration) 5.5): -97.044% and -97.709% and -95.886%
Mouse ligand binding Response (%) ([2]; -LOG10(Concentration) 6): -90.54% and -92.979% and -82.118%
Mouse ligand binding Response (%) ([2]; -LOG10(Concentration) 6.5): -75.979% and -75.927%
Mouse ligand binding Response (%) ([2]; -LOG10(Concentration) 7): -66.593% and -61.493% and -41.548%
Mouse ligand binding Response (%) ([2]; -LOG10(Concentration) 7.5): -41.39% and -32.816% and -24.196%
Mouse ligand binding Response (%) ([2]; -LOG10(Concentration) 8): -17.738% and -1.711% and -32.373%
Mouse ligand binding Response (%) ([2]; -LOG10(Concentration) 8.5): -14.117% and 14.175%
Mouse ligand binding Response (%) ([2]; -LOG10(Concentration) 9): -4.804% and 10.02% and -17.221%
Mouse ligand binding Response (%) ([2]; -LOG10(Concentration) 9.5): -4.804% and 5.051% and -11.899%
RORa agonism Response (%) (human RORα LBD; -LOG10(Concentration) 4.5): 151.862%
RORa agonism Response (%) (human RORα LBD; -LOG10(Concentration) 5): 149.498%
RORa agonism Response (%) (human RORα LBD; -LOG10(Concentration) 5.5): 136.244%
RORa agonism Response (%) (human RORα LBD; -LOG10(Concentration) 6): 110.728%
RORa agonism Response (%) (human RORα LBD; -LOG10(Concentration) 6.5): 68.027%
RORa agonism Response (%) (human RORα LBD; -LOG10(Concentration) 7): 28.348%
RORa agonism Response (%) (human RORα LBD; -LOG10(Concentration) 7.5): 7.215%
RORa agonism Response (%) (human RORα LBD; -LOG10(Concentration) 8): 11.627%
RORa agonism Response (%) (human RORα LBD; -LOG10(Concentration) 8.5): 1.827%
RORa agonism Response (%) (human RORα LBD; -LOG10(Concentration) 9): 1.839%
RORa inverse agonism Response (%) (human RORα LBD; -LOG10(Concentration) 4.5): 135.32%
RORa inverse agonism Response (%) (human RORα LBD; -LOG10(Concentration) 5): 141.906%
RORa inverse agonism Response (%) (human RORα LBD; -LOG10(Concentration) 5.5): 137.911%
RORa inverse agonism Response (%) (human RORα LBD; -LOG10(Concentration) 6): 125.139%
RORa inverse agonism Response (%) (human RORα LBD; -LOG10(Concentration) 6.5): 92.31%
RORa inverse agonism Response (%) (human RORα LBD; -LOG10(Concentration) 7): 46.105%
RORa inverse agonism Response (%) (human RORα LBD; -LOG10(Concentration) 7.5): 12.144%
RORa inverse agonism Response (%) (human RORα LBD; -LOG10(Concentration) 8): 1.673%
RORa inverse agonism Response (%) (human RORα LBD; -LOG10(Concentration) 8.5): -4.289%
RORa inverse agonism Response (%) (human RORα LBD; -LOG10(Concentration) 9): -3.197%
Mouse PPB (% unbound) [6]: 18.6 (1) %
SMILES: CC(=O)N1Cc2cc(S(C)(=O)=O)ccc2[C@@H]1C(=O)Nc1ccc(C(O)(C(F)(F)F)C(F)(F)F)cc1 [Compound 5]
Human Th17 Response (%) ([5]; -LOG10(Concentration) 6.5, single points per experiment): -83.16% and -87.655% and -78.367% and -82.722%
Human IL-17A in Th17 cells ([5]; IL-17A in supernatants after 4 days): 7.8 ± 0.2 (45)
Thymocyte apoptosis (mouse thymocytes): 6.6 ± 0.1 (4)
ear thickness (IMQ model; IMQ model): significantly but partially reduced
effect in the IMQ model (IMQ model; repeated daily dosing of 15 mg/kg): a larger effect
effect on thymocyte numbers (thymocyte numbers): did not have a significant effect
